According to patent US9464106B2, “Oligonucleotides useful for detecting and analyzing nucleic acids of interest” (Exiqon A/S, priority 2002, dated 2016):
l = locked nucleic acid (LNA); [5mC] = 5-methylcytosine; d = 2'-deoxy (DNA)

System: yeast HSP78 (YDR258C) sequence
Assay: Duplex melting temperatures of HSP78 25-mer capture probes (UV spectrophotometer)
Details: 25-mer capture probe duplex with complementary target; design PM = perfectly matched, MM = single mismatch; DNA, LNA_T (T) or LNA_TC (TC) substituted

Substance | Average duplex melting temp. [°C]
12773 (DNA AAAACGACAGCATAAGGCTTTCTTC; DNA, backbone not given here; further chemistry not fully specified) [compound 12773] | 64.5
12774 (DNA ATTGACCTCAAAACTTTCTTGGATA; DNA, backbone not given here; further chemistry not fully specified) [compound 12774] | 61.8
12775 (DNA CCCAACTTTGTGTCGTTTAATAAAA; DNA, backbone not given here; further chemistry not fully specified) [compound 12775] | 61
12776 (DNA ACCATCATCACCCAACTTTGTGTCG; DNA at ACG, LNA at T, backbone not given here; further chemistry not fully specified) [compound 12776] | 79.2
12777 (DNA CAATGATCGTGTTACGGAAATCAAC; sugars from the 5' end dddlddlddlddldddddddldddd, backbone not given here; further chemistry not fully specified) [compound 12777] | 72.2
12778 (DNA TGGCCTAGGGAATCGGTCAGCTTAC; DNA at ACG, LNA at T, backbone not given here; further chemistry not fully specified) [compound 12778] | 76.9
12779 (DNA TTGGAAACATCGGGGTGCGCTTTTT; sugars from the 5' end lldddddddldddddlddddlllld, backbone not given here; further chemistry not fully specified) [compound 12779] | 76.7
12780 (DNA GAAACATCGGGGTGCGCTTTTTCAA; DNA at ACG, LNA at T, backbone not given here; further chemistry not fully specified) [compound 12780] | 78
12781 (DNA GACAGCCTCAGTTAATTGGCCACCA; sugars from the 5' end dddddddlddddlddlldddddddd, backbone not given here; further chemistry not fully specified) [compound 12781] | 75.4
12782 (DNA CCGATTAAACGAGAGACAGTATGCT; sugars from the 5' end ddddlldddddddddddddldlddd, backbone not given here; further chemistry not fully specified) [compound 12782] | 72.2
12783 (DNA ATCAAATAGGAATTCAGCTAAAGCC; DNA at ACG, LNA at T, backbone not given here; further chemistry not fully specified) [compound 12783] | 66.3
12784 (DNA GACCTAAGAACATAAAGCTGGCAAT; sugars from the 5' end ddddldddddddldddddldddddd, backbone not given here; further chemistry not fully specified) [compound 12784] | 67.5
12785 (DNA AAATAGCAGCAATGGCCTCGTCTTG; DNA at ACG, LNA at T, backbone not given here; further chemistry not fully specified) [compound 12785] | 77.2
12786 (DNA ATAGCAGCAATGGCCTCGTCTTGGC; DNA at ACG, LNA at T, backbone not given here; further chemistry not fully specified) [compound 12786] | 80.1
12787 (DNA GCAATGGCCTCGTCTTGGCCAACGA; DNA at ACG, LNA at T, backbone not given here; further chemistry not fully specified) [compound 12787] | 80.8
12788 (DNA GATGAACTCAGGTGGATAGGATCTT; sugars from the 5' end ddlddddlddddldddlddddldld, backbone not given here; further chemistry not fully specified) [compound 12788] | 71
12789 (DNA TCAGTTAGCCAATCCTTCGCTTCAT; sugars from the 5' end ldddllddddddlddlldddllddd, backbone not given here; further chemistry not fully specified) [compound 12789] | 75.7
12790 (DNA GTTGCCATGGAGTTCAAAATCTGTC; sugars from the 5' end dllddddlddddlddddddldldld, backbone not given here; further chemistry not fully specified) [compound 12790] | 74.7

Substance | Average duplex melting temp. [°C]
12791 (DNA AGACGTACAGCATCAGAAATAGCAG; DNA at ACG, LNA at T, backbone not given here; further chemistry not fully specified) [compound 12791] | 71.4
12792 (DNA TTTGGTAGCACGACAAGCTTAGTAT; sugars from the 5' end lllddlddddddddddddllddldd, backbone not given here; further chemistry not fully specified) [compound 12792] | 74.2
12793 (DNA ATAAAGCTGGCAATAGGTCTCTTTT; sugars from the 5' end dldddddldddddldddldldllld, backbone not given here; further chemistry not fully specified) [compound 12793] | 74.3
12794 (DNA TTTTTCGGCCAAACGATCTTGAATT; sugars from the 5' end ldllldddddddddddldlldddld, backbone not given here; further chemistry not fully specified) [compound 12794] | 71
12795 (DNA CACTCTAACAGTTTCGCCGTTTCTA; sugars from the 5' end dddldlddddddlddddddllldld, backbone not given here; further chemistry not fully specified) [compound 12795] | 75.5
12796 (DNA TCAATGGCCTTGCACCATATAATTG; DNA at ACG, LNA at T, backbone not given here; further chemistry not fully specified) [compound 12796] | 74
12797 (DNA AAAACGACAGCATAAGGCTTTCTTC; DNA at ACG, LNA at T, backbone not given here; further chemistry not fully specified) [compound 12797] | 71.7
12798 (DNA ATTGACCTCAAAACTTTCTTGGATA; DNA at ACG, LNA at T, backbone not given here; further chemistry not fully specified) [compound 12798] | 70.2
12799 (DNA CCCAACTTTGTGTCGTTTAATAAAA; DNA at ACG, LNA at T, backbone not given here; further chemistry not fully specified) [compound 12799] | 75.1
12800 (DNA ACCATCATCACCCAACCTTGTGTCG; sugars from the 5' end dlddlddldddllddddlddlddld, [5mC] at 2, 12, 13, 24, backbone not given here; further chemistry not fully specified) [compound 12800] | 74.2
12802 (DNA TGGCCTAGGGAATCGGTCAGCTTAC; sugars from the 5' end lddldlddddddllddldddldldd, [5mC] at 4, 14, 21, backbone not given here; further chemistry not fully specified) [compound 12802] | 83.6
12803 (DNA TTGGAAACATCGGGGTGCGCTTTTT; sugars from the 5' end lldddddlddlddddldldddldld, [5mC] at 8, 11, 18, backbone not given here; further chemistry not fully specified) [compound 12803] | 80.8
12804 (DNA GAAACATCGGGGTGCGCTTTTTCAA; sugars from the 5' end ddddldllddddldldddddldldd, [5mC] at 5, 8, 15, 23, backbone not given here; further chemistry not fully specified) [compound 12804] | 83.2
12805 (DNA GACAGCCTCAGTTAATTGGCCACCA; sugars from the 5' end ddlddldlddddlddlldddlddld, [5mC] at 3, 6, 21, 24, backbone not given here; further chemistry not fully specified) [compound 12805] | 82.5
12806 (DNA CCGATTAAACGAGAGACAGTATGCT; sugars from the 5' end llddlldddlddddddlddldldld, all C 5-methyl, backbone not given here; further chemistry not fully specified) [compound 12806] | 79.4
12807 (DNA ATCAAATAGGAATTCAGCTAAAGCC; sugars from the 5' end dlldddldddddldlddllddddld, [5mC] at 3, 15, 18, 24, backbone not given here; further chemistry not fully specified) [compound 12807] | 71.4
12808 (DNA GACCTAAGAACATAAAGCTGGCAAT; sugars from the 5' end ddllldddddldlddddllddlddd, all C 5-methyl, backbone not given here; further chemistry not fully specified) [compound 12808] | 78.9
12809 (DNA AAATAGCAGCAATGGCCTCGTCTTG; sugars from the 5' end dddlddlddlddlddldlldlddld, [5mC] at 7, 10, 16, 19, backbone not given here; further chemistry not fully specified) [compound 12809] | 86.8
